Entries after “also recorded” stand apart in the source; their conditions may differ. Read-outs that look alike come from different tables or passages of the source.
Legend:
Format in all cases: cell-based, human
[1] = test system: mTOR; assay: mTOR inhibition (RPS6 phosphorylation status), In-Cell Western
Outline: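 WI-38 cells exposed to compounds at 5, 10 and 20 μM for 24 hrs. Fixed cells co-stained overnight at 4° C with anti-RPS and anti-pRPS6 (Ser-235/236) antibodies, then DyLight 680/800 secondaries. Phospho-RPS6 relative to total RPS6 read by near-infrared In-Cell Western imaging.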

[2] = test system: WI-38 cells; assay: Propidium iodide (PI) cell-death imaging upon H2O2 stress; conditions: for Assay 7: H2O2-resistant, at 10 uM, validated by propidium iodide (PI) cell-death imaging: w/H2O2, 3 hrs/4 hrs/5 hrs, YES/NO; for cytotoxicity at 10 µM: Homo sapiens, WI-38
[3] = test system: FOXO3; assay: qPCR analysis of FOXO3-regulated genes; conditions: for Induction of at least two of five FOXO3-regulated genes (SOD2, GADD45A, CAT, DDB1, TXNIP): WI-38; for fold induction at 10 µM: Homo sapiens; for K = Sestrin induction: score
Outline: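 WI-38 cells treated with compound at 10 μM for 24 h, followed by Cells-to-Ct RT-qPCR of FOXO3 target genes normalised to B2M, PPIA and GAPDH. FOXO3 or NRF2 dependence tested by prior 10 nM siRNA knockdown (36 h transfection, compound added ~24 h after replating).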

[4] = test system: NRF2; assay: in vitro
[5] = H2O2 3 hrs, 10 uM, n = 6, negative control 5.44% ± 0.79%, read-out: Percentage of propidium iodide-positive dead cells (under H2O2 stress treatment), 3 hrs
[6] = H2O2 4 hrs, 10 uM, n = 6, negative control 16.81% ± 1.42%, read-out: Percentage of propidium iodide-positive dead cells (under H2O2 stress treatment), 4 hrs
[7] = pre-treatment at 10 uM, 3.5 hours of H2O2, DMSO control 27.4% ± 6.5%, */**/*** = reduced by one/two/three standard deviations, read-out: Percentage of propidium iodide-positive dead cells (under H2O2 stress treatment), at 10 uM
[8] = 24 h, Assay 10(m), at 10 uM, qPCR, read-out: Induction of FOXO3-regulated genes: CAT normalized fold-change
[9] = 10 μM, 24 hrs, WI-38 cells, qPCR, normalized to B2M, n = 4, read-out: CAT expression, normalized fold change (FOXO3-regulated gene)
[10] = WI-38 cells, 10 μM, 24 hrs, n=4, qPCR normalized by B2M, read-out: DDB1 Normalized fold change
[11] = WI-38 cells, 10 μM, 24 hrs, n=4, qPCR normalized by B2M, read-out: GADD45A Normalized fold change
[12] = WI-38 cells, 10 μM, 24 hrs, n=4, qPCR normalized by B2M, read-out: SESN1 Normalized fold change
[13] = fold change, qPCR, WI-38 cells, 10 μM, 24 hrs, read-out: Summary of effects on FOXO3-regulated genes: CAT
[14] = qPCR, WI-38 cells, 10 μM, n=4, 24 hrs, normalized by B2M, read-out: CAT Normalized fold change
[15] = qPCR, WI-38 cells, 10 μM, n=4, 24 hrs, normalized by B2M, read-out: SOD2 Normalized fold change
[16] = qPCR, WI-38 cells, 10 μM, n=4, 24 hrs, normalized by B2M, read-out: TXNIP Normalized fold change
[17] = 24 h, Assay 10(m), at 10 uM, qPCR, read-out: Induction of FOXO3-regulated genes: TXNIP normalized fold-change
[18] = 10 μM, 24 hrs, WI-38 cells, qPCR, normalized to B2M, n = 4, read-out: TXNIP expression, normalized fold change (FOXO3-regulated gene)
[19] = fold change, qPCR, WI-38 cells, 10 μM, 24 hrs, read-out: Summary of effects on FOXO3-regulated genes: TXNIP

| SMILES | G = mTOR down-regulation ([1]; 2-point score) | G = mTOR down-regulation ([1]; summary score) | Assay 7: H2O2-resistant, at 10 uM, validated by propidium iodide (PI) cell-death imaging ([2]; 10 uM) | cytotoxicity at 10 µM [2, 5] | cytotoxicity at 10 µM [2, 6] | cytotoxicity at 10 µM [2, 7] | Induction of at least two of five FOXO3-regulated genes (SOD2, GADD45A, CAT, DDB1, TXNIP) ([3]; 10 μM, 24 hrs) | E = Potential FOXO3 Activation ([3]; 2-point score) | fold induction at 10 µM [3, 8] | fold induction at 10 µM [3, 9] | fold induction at 10 µM [3, 10] | fold induction at 10 µM [3, 11] | fold induction at 10 µM [3, 12] | fold induction at 10 µM [3, 14] | fold induction at 10 µM [3, 15] | fold induction at 10 µM [3, 16] | K = Sestrin induction [3] | E = Potential FOXO3 Activation ([3]; summary score) | J = NRF2-dependency for H2O2-resistance ([4]; score) | J = NRF2-dependency for H2O2-resistance ([4]; summary score) | other results |
| --- | --- | --- | --- | --- | --- | --- | --- | --- | --- | --- | --- | --- | --- | --- | --- | --- | --- | --- | --- | --- | --- |
| O=C(c1ccc([N+](=O)[O-])o1)N1CCc2ccccc21 [O13] | 0 | 0 | YES | 1.13% | 2.56% | 4.8% | significant induction; also recorded: significant, induction | 0 | 1.33 | 1.33 | 1.27 | 1.2 | 1.23 | 1.32 | 1.09 | 0.907 | 0 | 0 | 0 | 0 | cytotoxicity at 10 µM ([2]; H2O2 5 hrs, 10 uM, n = 6, negative control 22.50% ± 1.53%, read-out: Percentage of propidium iodide-positive dead cells (under H2O2 stress treatment), 5 hrs): 7.03%; fold induction at 10 µM ([3]; 24 h, Assay 10(m), at 10 uM, qPCR, read-out: Induction of FOXO3-regulated genes: DDB1 normalized fold-change): 1.27; fold induction at 10 µM ([3]; 24 h, Assay 10(m), at 10 uM, qPCR, read-out: Induction of FOXO3-regulated genes: GADD45A normalized fold-change): 1.2; fold induction at 10 µM ([3]; 10 μM, 24 hrs, WI-38 cells, qPCR, normalized to B2M, n = 4, read-out: DDB1 expression, normalized fold change (FOXO3-regulated gene)): 1.27; fold induction at 10 µM ([3]; 10 μM, 24 hrs, WI-38 cells, qPCR, normalized to B2M, n = 4, read-out: GADD45A expression, normalized fold change (FOXO3-regulated gene)): 1.2; fold induction at 10 µM [3, 13]: 1.33; fold induction at 10 µM ([3]; fold change, qPCR, WI-38 cells, 10 μM, 24 hrs, read-out: Summary of effects on FOXO3-regulated genes: DDB1): 1.27; fold induction at 10 µM ([3]; fold change, qPCR, WI-38 cells, 10 μM, 24 hrs, read-out: Summary of effects on FOXO3-regulated genes: GADD45A): 1.2 |
| COc1ccc(C(=O)/C=C/c2ccccc2Br)c(OC)c1 [Gr-4B] | 0 | 0 | YES | 3.31% | – | 3.4% | – | 0 | – | – | 1.06 | 0.61 | 0.992 | 1.18 | 1.04 | 0.792 | 0 | 0 | 0 | 0 | – |
| Oc1ncnc2sc3c(c12)CCC3 [O14] | 0 | 0 | YES | 3.8% | – | 12.7% | significant induction | 0 | – | – | 1.08 | 1.2 | 1.14 | 1.03 | 1.27 | 1.39 | 0 | 0 | 0 | 0 | fold induction at 10 µM ([3]; 24 h, Assay 10(m), at 10 uM, qPCR, read-out: Induction of FOXO3-regulated genes: SOD2 normalized fold-change): 1.06; fold induction at 10 µM [3, 17]: 1.27; fold induction at 10 µM [3, 18]: 1.39; fold induction at 10 µM [3, 19]: 1.39 |
| O=C(Nc1cc(C(F)(F)F)ccc1Cl)c1ccc([N+](=O)[O-])o1 [Gr-1B] | 0 | 0 | YES | 2.69% | – | 38.1% | significant induction; also recorded: significant, induction | 0 | 1.4 | 1.4 | 1.18 | 0.947 | 1.3 | 1.4 | 1.21 | 1.94 | 0 | 0 | 0 | 0 | fold induction at 10 µM [3, 17]: 1.52; fold induction at 10 µM ([3]; 10 μM, 24 hrs, WI-38 cells, qPCR, normalized to B2M, n = 4, read-out: SESN1 expression, normalized fold change (FOXO3-regulated gene)): 1.3; fold induction at 10 µM [3, 18]: 1.94; fold induction at 10 µM [3, 13]: 1.4; fold induction at 10 µM ([3]; fold change, qPCR, WI-38 cells, 10 μM, 24 hrs, read-out: Summary of effects on FOXO3-regulated genes: SESN1): 1.3; fold induction at 10 µM [3, 19]: 1.94 |
| O=C(Nc1nc(C23CC4CC(CC(C4)C2)C3)cs1)C(c1ccccc1)c1ccccc1 [O10] | 0 | 0 | YES | 2.19% | 4.27% | 3.6% | – | 0 | – | – | 0.906 | 1.19 | 0.983 | 0.892 | 0.912 | 0.731 | 0 | 0 | 0 | 0 | – |
| CCc1ccc(Oc2nc3ccccn3c(=O)c2/C=C(\C#N)C(=O)NCc2ccco2)cc1 [Gr-5B] | 0 | 0 | YES | 1.18% | 6.19% | 6.1% | – | 0 | – | – | 1.25 | 0.808 | 1.36 | 1.42 | 1.13 | 1.2 | 0 | 0 | 0 | 0 | – |
